Laboratory results taken from US9676715B2, “Bis-indolic derivatives, a process for preparing the same and their uses as a drug” (UNIVERSITE JOSEPH FOURIER, priority 2011, dated 2017).

What was measured:
[1] = system: S. epidermidis ATCC 12228; assay: MIC, microdilution method (9.1); assay type: cell-based, Staphylococcus epidermidis; settings: Staphylococcus epidermidis, ATCC12228, read after 18 h, read-out: MIC
In short: (§1)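 Antibacterial activity was determined by the microdilution technique recommended in CLSI document M07-A8, at 37° C. in ambient air with Mueller Hinton medium and a final bacterial load of 5×10^5 CFU/ml.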

[2] = system: E. faecalis ATCC 29212; assay: MIC, microdilution method (9.1); assay type: cell-based, Enterococcus faecalis; settings: Enterococcus faecalis, ATCC29212, 18 h, read-out: MIC
In short: as §1

[3] = system: E. faecium CIP 54.32; assay: MIC, microdilution method (9.1); assay type: cell-based, Enterococcus faecium; settings: Enterococcus faecium, CIP54, 18 h, read-out: MIC
In short: as §1

[4] = system: S. pyogenes (group A) CIP 104226; assay: MIC, microdilution method (9.1); assay type: cell-based, Streptococcus pyogenes; settings: Streptococcus pyogenes, CIP104226, 18 h, read-out: MIC
In short: as §1

[5] = system: S. pneumoniae ATCC 6303; assay: MIC, microdilution method (9.1); assay type: cell-based, Streptococcus pneumoniae; settings: Streptococcus pneumoniae, ATCC6303, 10% sheep blood, 5% CO2, 18 h, read-out: MIC
In short: (§2)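 CLSI broth microdilution in Mueller Hinton broth, final inoculum 5×10^5 CFU/ml, with two-fold compound dilutions (0.50-128 mg/L final). Incubation at 37° C in ambient air, or 5% CO2 with 10% sheep blood for fastidious species.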

[6] = system: S. agalactiae (group B) ATCC 12400; assay: MIC, microdilution method (9.1); assay type: cell-based, Streptococcus agalactiae; settings: Streptococcus agalactiae, ATCC12400, 18 h, read-out: MIC
In short: as §1

[7] = system: Staphylococcus aureus 1199B (overexpression of the NorA efflux pump); assay: Efflux pump inhibition assay with sub-inhibitory ciprofloxacin; assay type: cell-based; settings: S. aureus 1199B
Protocol: (§3) The efflux pump inhibition potential of the bis-indolic derivatives was tested using two steps.
(§4) The following experimental protocol was used: indolic derivatives (initially solubilised in DMSO at 10 mg/mL) were dispensed in a 96-wells microplate by two fold serial dilutions in Muller-Hinton medium (MH, Bio Rad) using a Biomek 2000 (Beckman) handling robot. 100 μL of the bacterial inoculum (an overnight culture at 37° C. in 5 mL MH diluted 100-fold) was then added in each well. The total volume was 200 μL in each well and the final bacteria concentration 10^6 CFU/mL (CFU: colony forming unit). The highest final indolic derivative concentration was 128 mg/L. Growth was assayed with a microplate reader by monitoring absorption at 620 nm after 1, 2, 5, 7 and 24 h incubation at 37° C. In addition, the plates were read visually after 24 hours incubation. Cultures containing 5 μL DMSO were used as growth controls. In addition, two controls containing a sub-inhibitory or a inhibitory antibiotic concentration for the tested strain were performed. The antibiotics used were ampicillin (0.5 and 32 μg/mL) for E. coli, kanamycin (0.5 and 16 μg/mL) for S. aureus ATCC 25923, ciprofloxacin (4 and 64 mg/L) for S. aureus 1199B, ciprofloxacin (0.5 and 2 mg/L) for S. aureus K2378. All experiments were performed in duplicate.
(§5) Efflux pump inhibition assays were then performed against resistant Staphylococcus aureus strains SA 1199B and SA K2378 for bis-indolic derivatives. […] The minimal inhibitory concentration (MIC) of the bis-indolic compound allowing a complete inhibition of the bacterial growth in the presence of ciprofloxacin was determined.

[8] = system: Staphylococcus aureus K2378 (overexpresses the efflux pump NorA from a multicopy plasmid); assay: as above; assay type: cell-based; settings: S. aureus K2378; in the presence of ciprofloxacin 0.5 mg/L
Protocol: as §3, §4, §5

[9] = system: Listeria innocua CIP 80.11; assay: MIC, microdilution method (9.1); assay type: cell-based; settings: CIP80, 18 h, read-out: MIC
In short: as §1

[10] = system: S. pneumoniae ATCC 49619; assay: MIC, microdilution method (9.1); assay type: cell-based; settings: Streptococcus pneumoniae, ATCC49619, 10% sheep blood, 5% CO2, 18 h
In short: as §2

[11] = system: Acinetobacter baumanii ATCC 19606; assay: MIC, microdilution method (9.1); assay type: cell-based; settings: Acinetobacter baumannii, ATCC19606, 18 h, read-out: MIC
In short: as §1

[12] = system: Serratia marcescens CIP 103551; assay: MIC, microdilution method (9.1); assay type: cell-based; settings: CIP103551, 18 h
In short: as §1

[13] = system: Pseudomonas aeruginosa CIP 5933; assay: MIC, microdilution method (9.1); assay type: cell-based; settings: CIP5933, 18 h, read-out: MIC
In short: as §1

[14] = system: Klebsiella pneumoniae API ATCC 35657; assay: MIC, microdilution method (9.1); assay type: cell-based; settings: ATCC35657, 18 h, read-out: MIC
In short: as §1

[15] = system: Enterobacter cloacae ATCC13047; assay: MIC, microdilution method (9.1); assay type: cell-based; settings: 18 h
In short: as §1

[16] = system: Bacillus subtilis CIP 5262; assay: MIC, microdilution method (9.1); assay type: cell-based; settings: CIP5262, 18 h, read-out: MIC
In short: as §1

[17] = system: Escherichia coli ATCC 25922; assay: MIC, microdilution method (9.1); assay type: cell-based; settings: ATCC25922, 18 h
In short: as §1

[18] = system: Haemophilus influenzae ATCC 49766; assay: MIC, microdilution method (9.1); assay type: cell-based; settings: ATCC49766; Haemophilus influenzae ATCC 49766; 10% sheep blood, 5% CO2; 18 h; read-out: MIC
In short: as §2

[19] = system: MRC5 (human lung fibroblast); assay: In vitro cytotoxicity; assay type: cell-based; settings: read-out: % of cellular growth inhibition; for inhibition at 10 µM: 10^−5 M; for inhibition at 1 µM: 10^−6 M
Protocol: (§6) In vitro cytotoxicity was assayed on three cell lines—KB (human mouth carcinoma), MCR5 (human lung fibroblast) and HCT116 (human colon tumor). Results are presented in table IV as % of cellular growth inhibition in presence of 10^−5 M and 10^−6 M of the tested bis-indolic derivatives.

[20] = system: HCT116 (human colon tumor); assay: In vitro cytotoxicity; assay type: cell-based; settings: read-out: % of cellular growth inhibition; for inhibition at 10 µM: HCT-116, 10^−5 M; for inhibition at 1 µM: HCT-116, 10^−6 M
Protocol: as §6

[21] = system: KB (human mouth carcinoma); assay: In vitro cytotoxicity; assay type: cell-based; settings: read-out: % of cellular growth inhibition; for inhibition at 10 µM: 10^−5 M; for inhibition at 1 µM: 10^−6 M
Protocol: as §6

[22] = system: S. aureus ATCC 29213; assay: MIC, microdilution method (9.1); assay type: cell-based, Staphylococcus aureus; settings: Staphylococcus aureus, ATCC29213, read after 18 h, read-out: MIC
In short: as §1

[23] = system: S. aureus ATCC 25923; assay: MIC, microdilution method (9.1); assay type: cell-based, Staphylococcus aureus; settings: Staphylococcus aureus, ATCC25923, read after 18 h, read-out: MIC
In short: as §1

[24] = system: S. mitis CIP 103335; assay: MIC, microdilution method (9.1); assay type: cell-based, Streptococcus mitis; settings: Streptococcus mitis, CIP103335, 18 h, read-out: MIC
In short: as §1

[25] = system: S. aureus; settings: penicillin M compounds; cited from earlier work
[26] = system: S. epidermidis CIP 81.55; assay: MIC, microdilution method (9.1); assay type: cell-based, Staphylococcus epidermidis; settings: Staphylococcus epidermidis, CIP81, read after 18 h, read-out: MIC
In short: as §1

[27] = system: S. epidermidis CIP 103627; assay: MIC, microdilution method (9.1); assay type: cell-based, Staphylococcus epidermidis; settings: Staphylococcus epidermidis, CIP103627, read after 18 h, read-out: MIC
In short: as §1

[28] = system: S. aureus CIP 103428; assay: MIC, microdilution method (9.1); assay type: cell-based, Staphylococcus aureus; settings: Staphylococcus aureus, CIP103428, read after 18 h, read-out: MIC
In short: as §1

[29] = system: S. aureus ATCC 33592 (MRSA); assay: MIC, microdilution method (9.1); assay type: cell-based, Staphylococcus aureus; settings: Staphylococcus aureus, read after 18 h, read-out: MIC
In short: as §1

[30] = system: S. aureus ATCC 106414 (VISA); assay: MIC, microdilution method (9.1); assay type: cell-based, Staphylococcus aureus; settings: Staphylococcus aureus, read after 18 h, read-out: MIC
In short: as §1

[31] = system: S. aureus CIP 65.6; assay: MIC, microdilution method (9.1); assay type: cell-based, Staphylococcus aureus; settings: Staphylococcus aureus, CIP65, read after 18 h, read-out: MIC
In short: as §1

[32] = system: S. aureus ATCC 9144; assay: MIC, microdilution method (9.1); assay type: cell-based, Staphylococcus aureus; settings: Staphylococcus aureus, ATCC9144, read after 18 h, read-out: MIC
In short: as §1

[33] = system: S. aureus SA-1199B; assay: MIC, microdilution method (9.1); assay type: cell-based, Staphylococcus aureus; settings: Staphylococcus aureus, SA1199B, 18 h
In short: as §1

[34] = system: S. aureus ATCC 6538; assay: MIC, microdilution method (9.1); assay type: cell-based, Staphylococcus aureus; settings: Staphylococcus aureus, ATCC6538, read after 18 h, read-out: MIC
In short: as §1

[35] = system: S. aureus CIP 65.25 (MRSA); assay: MIC, microdilution method (9.1); assay type: cell-based, Staphylococcus aureus; settings: Staphylococcus aureus, read after 18 h, read-out: MIC
In short: as §1

[36] = in the presence of ciprofloxacin 2 mg/L
[37] = in the presence of ciprofloxacin 4 mg/L

Structure (SMILES): CC(C)(C)OC(=O)NCC(NC(=O)c1c[nH]c2ccccc12)c1c[nH]c2ccccc12 (stereo not drawn) [Compound 3a, tert-Butyl (2-(1H-indol-3-yl)-2-(1H-indole-3-carboxamido)ethyl)carbamate]
- MIC [1]: > 128 µg/mL
- MIC [2]: > 128 µg/mL
- MIC [3]: > 128 µg/mL
- MIC [4]: > 128 µg/mL
- MIC [5]: > 128 µg/mL
- MIC [6]: > 128 µg/mL
- MIC, mg/L (Ciprofloxacin concentration, mg/L) ([7]; in the presence of ciprofloxacin 1 mg/L): 2 (1) mg/L
- MIC, mg/L (Ciprofloxacin concentration, mg/L) [7, 36]: 0.5 (2) mg/L
- MIC, mg/L (Ciprofloxacin concentration, mg/L) [7, 37]: 0.25 (4) mg/L
- MIC, mg/L (Ciprofloxacin concentration, mg/L) [8]: 4 (0.5) mg/L
- MIC [9]: > 128 µg/mL
- MIC [10]: > 128 µg/mL
- MIC [11]: > 128 µg/mL
- MIC [12]: > 128 µg/mL
- MIC [13]: > 128 µg/mL
- MIC [14]: > 128 µg/mL
- MIC [15]: > 128 µg/mL
- MIC [16]: > 128 µg/mL
- MIC [17]: > 128 µg/mL
- MIC [18]: > 128 µg/mL
- inhibition at 10 µM [19]: 14 ± 1%
- inhibition at 1 µM [19]: 2%
- inhibition at 10 µM [20]: 22 ± 5%
- inhibition at 1 µM [20]: 11%
- inhibition at 10 µM [21]: 18 ± 1%
- inhibition at 1 µM [21]: 16%
- MIC [22]: > 128 µg/mL
- MIC [23]: > 128 µg/mL
- MIC [24]: > 128 µg/mL

Structure (SMILES): COc1cccc(OC)c1C(=O)N[C@@H]1C(=O)N2[C@@H]1SC(C)(C)[C@@H]2C(=O)O [methicillin]
- mutation frequency [25]: ~10^−9

Structure (SMILES): Cc1onc(-c2ccccc2)c1C(=O)N[C@@H]1C(=O)N2[C@@H]1SC(C)(C)[C@@H]2C(=O)O [oxacillin]
- mutation frequency [25]: ~10^−9

Structure (SMILES): O=C(NC(C(=O)O)c1c[nH]c2ccc(Br)cc12)c1c[nH]c2ccc(Br)cc12 (stereo not drawn) [Compound 12, 2-(5-Bromo-1H-indol-3-yl)-2-(5-bromo-1H-indole-3-carboxamido) acetic acid]
- MIC [26]: > 32 µg/mL
- MIC [1]: > 32 µg/mL
- MIC [27]: > 32 µg/mL
- MIC, mg/L (Ciprofloxacin concentration, mg/L) [7, 36]: 32 (2) mg/L
- MIC, mg/L (Ciprofloxacin concentration, mg/L) [7, 37]: 64 (4) mg/L
- MIC, mg/L (Ciprofloxacin concentration, mg/L) [8]: 64 (0.5) mg/L
- melting point: 195 °C
- inhibition at 10 µM [19]: 3 ± 3%
- inhibition at 1 µM [19]: 3%
- inhibition at 10 µM [20]: 0%
- inhibition at 1 µM [20]: 0%
- inhibition at 10 µM [21]: 0%
- inhibition at 1 µM [21]: 0%
- MIC [28]: > 32 µg/mL
- MIC [29]: > 32 µg/mL
- MIC [22]: > 32 µg/mL
- MIC [30]: > 32 µg/mL
- MIC [31]: > 32 µg/mL
- MIC [32]: > 32 µg/mL
- MIC [33]: > 32 µg/mL
- MIC [34]: > 32 µg/mL
- MIC [35]: > 32 µg/mL
- MIC [23]: > 32 µg/mL
